These results are taken from PubChem BioAssay AID1259407 (Chemical Carcinogenesis Research Information System (CCRIS), 2018).

Molecules are shown by their SMILES. The source made the active and inactive calls. The rule behind the calls is not given here.

In the data set the test system is CCRIS mutagenicity, Ames/micronucleus/aberration tests. Kind of data set: CCRIS mutagenicity studies.
[1] abbreviates: Test System: AMES SALMONELLA TYPHIMURIUM, Strain/Indicator: TA98, Metabolic Activation: HAMSTER, LIVER, S-9, AROCLOR 1254 (10%), Method: PREINCUBATION
[2] abbreviates: Test System: AMES SALMONELLA TYPHIMURIUM, Strain/Indicator: TA98, Metabolic Activation: NONE, Method: PREINCUBATION
[3] abbreviates: Test System: AMES SALMONELLA TYPHIMURIUM, Strain/Indicator: TA98, Metabolic Activation: RAT, LIVER, S-9, AROCLOR 1254 (10%), Method: PREINCUBATION
[4] abbreviates: Test System: AMES SALMONELLA TYPHIMURIUM, Strain/Indicator: TA100, Metabolic Activation: HAMSTER, LIVER, S-9, AROCLOR 1254 (10%), Method: PREINCUBATION
The mark [5] stands for this setting: Test System: AMES SALMONELLA TYPHIMURIUM, Strain/Indicator: TA100, Metabolic Activation: HAMSTER, LIVER, S-9, AROCLOR 1254 (30%), Method: PREINCUBATION
Where [6] appears, read: Test System: AMES SALMONELLA TYPHIMURIUM, Strain/Indicator: TA100, Metabolic Activation: NONE, Method: PREINCUBATION
Setting [7] is: Test System: AMES SALMONELLA TYPHIMURIUM, Strain/Indicator: TA100, Metabolic Activation: RAT, LIVER, S-9, AROCLOR 1254 (10%), Method: PREINCUBATION
The mark [8] stands for this setting: Test System: AMES SALMONELLA TYPHIMURIUM, Strain/Indicator: TA100, Metabolic Activation: RAT, LIVER, S-9, AROCLOR 1254 (30%), Method: PREINCUBATION
The mark [9] stands for this setting: Test System: AMES SALMONELLA TYPHIMURIUM, Strain/Indicator: TA1535, Metabolic Activation: HAMSTER, LIVER, S-9, AROCLOR 1254 (10%), Method: PREINCUBATION
Setting [10] is: Test System: AMES SALMONELLA TYPHIMURIUM, Strain/Indicator: TA1535, Metabolic Activation: NONE, Method: PREINCUBATION
[11] abbreviates: Test System: AMES SALMONELLA TYPHIMURIUM, Strain/Indicator: TA1535, Metabolic Activation: RAT, LIVER, S-9, AROCLOR 1254 (10%), Method: PREINCUBATION
[12] abbreviates: Test System: AMES SALMONELLA TYPHIMURIUM, Strain/Indicator: TA1537, Metabolic Activation: NONE, Method: PREINCUBATION
The mark [13] stands for this setting: Test System: AMES SALMONELLA TYPHIMURIUM, Strain/Indicator: TA1538, Metabolic Activation: NONE, Method: PREINCUBATION

Regarding `CC(=O)CC(C)C`, the mutagenic call (Test System: AMES SALMONELLA TYPHIMURIUM, Strain/Indicator: TA97, Metabolic Activation: HAMSTER, LIVER, S-9, AROCLOR 1254 (10 OR 30%), Method: PREINCUBATION) was “inactive; negative”; the mutagenic call (Test System: AMES SALMONELLA TYPHIMURIUM, Strain/Indicator: TA97, Metabolic Activation: NONE, Method: PREINCUBATION) is “inactive; negative”; the mutagenic call (Test System: AMES SALMONELLA TYPHIMURIUM, Strain/Indicator: TA97, Metabolic Activation: RAT, LIVER, S-9, AROCLOR 1254 (10 OR 30%), Method: PREINCUBATION) was “inactive; negative”; the mutagenic call under setting [1] is “inactive; negative”; the mutagenic call (Test System: AMES SALMONELLA TYPHIMURIUM, Strain/Indicator: TA98, Metabolic Activation: HAMSTER, LIVER, S-9, AROCLOR 1254 (30%), Method: PREINCUBATION) is “inactive; negative”; the mutagenic call under setting [2] is “inactive; negative”. In addition, the mutagenic call was “inactive; negative” under setting [3]; “inactive; negative” (Test System: AMES SALMONELLA TYPHIMURIUM, Strain/Indicator: TA98, Metabolic Activation: RAT, LIVER, S-9, AROCLOR 1254 (30%), Method: PREINCUBATION); “inactive; negative” (Test System: AMES SALMONELLA TYPHIMURIUM, Strain/Indicator: TA98, Metabolic Activation: RAT, LIVER, S-9, AROCLOR 1254, Method: PREINCUBATION); “inactive; negative” under setting [4]; “inactive; negative” under setting [5]; “inactive; negative” under setting [6]. The mutagenic call by setting is: under setting [7], “inactive; negative”; under setting [8], “inactive; negative”; (Test System: AMES SALMONELLA TYPHIMURIUM, Strain/Indicator: TA100, Metabolic Activation: RAT, LIVER, S-9, AROCLOR 1254, Method: PREINCUBATION) “inactive; negative”; under setting [9], “inactive; negative”; (Test System: AMES SALMONELLA TYPHIMURIUM, Strain/Indicator: TA1535, Metabolic Activation: HAMSTER, LIVER, S-9, AROCLOR 1254 (30%), Method: PREINCUBATION) “inactive; negative”; under setting [10], “inactive; negative”. Further, the mutagenic call was “inactive; negative” under setting [11]; “inactive; negative” (Test System: AMES SALMONELLA TYPHIMURIUM, Strain/Indicator: TA1535, Metabolic Activation: RAT, LIVER, S-9, AROCLOR 1254 (30%), Method: PREINCUBATION); “inactive; negative” (Test System: AMES SALMONELLA TYPHIMURIUM, Strain/Indicator: TA1535, Metabolic Activation: RAT, LIVER, S-9, AROCLOR 1254, Method: PREINCUBATION); “inactive; negative” under setting [12]; “inactive; negative” (Test System: AMES SALMONELLA TYPHIMURIUM, Strain/Indicator: TA1537, Metabolic Activation: RAT, LIVER, S-9, AROCLOR 1254, Method: PREINCUBATION); “inactive; negative” under setting [13]. In addition, the mutagenic call was “inactive; negative” (Test System: AMES SALMONELLA TYPHIMURIUM, Strain/Indicator: TA1538, Metabolic Activation: RAT, LIVER, S-9, AROCLOR 1254, Method: PREINCUBATION); “active; positive” (Test System: MOUSE LYMPHOMA, Strain/Indicator: L5178Y (TK+/TK-), Metabolic Activation: NONE, Method: SUSPENSION/PLATE); “inactive; negative” (Test System: MOUSE LYMPHOMA, Strain/Indicator: L5178Y (TK+/TK-), Metabolic Activation: RAT, LIVER, S-9, AROCLOR 1242 AND AROCLOR 1254 (2:1), Method: SUSPENSION/PLATE).

In the case of `CC(C)NC(C)C`, the mutagenic call was “inactive; negative” under setting [1]; “inactive; negative” under setting [2]; “inactive; negative” under setting [3]; “inactive; negative” under setting [4]; “inactive; negative” under setting [6]; “inactive; negative” under setting [7]. For the same compound, the mutagenic call is, setting by setting: under setting [9], “inactive; negative”; under setting [10], “inactive; negative”; under setting [11], “inactive; negative”; (Test System: AMES SALMONELLA TYPHIMURIUM, Strain/Indicator: TA1537, Metabolic Activation: HAMSTER, LIVER, S-9, AROCLOR 1254 (10%), Method: PREINCUBATION) “inactive; negative”; under setting [12], “inactive; negative”; (Test System: AMES SALMONELLA TYPHIMURIUM, Strain/Indicator: TA1537, Metabolic Activation: RAT, LIVER, S-9, AROCLOR 1254 (10%), Method: PREINCUBATION) “inactive; negative”.

Turning to `COC(=O)[C@@H]1CS[C@@H]2C(Cl)=C(Cl)C(=O)N21`, the mutagenic call (Test System: AMES SALMONELLA TYPHIMURIUM, Strain/Indicator: TA100, Metabolic Activation: NONE, Method: STANDARD PLATE) is “active; positive”.

Take `CC(C)(S)C(=O)N[C@@H](CS)C(=O)O`: the mutagenic call under setting [2] was “inactive; negative”; the mutagenic call (Test System: AMES SALMONELLA TYPHIMURIUM, Strain/Indicator: TA98, Metabolic Activation: RAT, LIVER, S-9, Method: PREINCUBATION) was “inactive; negative”; the mutagenic call under setting [6] is “inactive; negative”; the mutagenic call (Test System: AMES SALMONELLA TYPHIMURIUM, Strain/Indicator: TA100, Metabolic Activation: RAT, LIVER, S-9, Method: PREINCUBATION) was “inactive; negative”; the mutagenic call under setting [10] was “inactive; negative”; the mutagenic call (Test System: AMES SALMONELLA TYPHIMURIUM, Strain/Indicator: TA1535, Metabolic Activation: RAT, LIVER, S-9, Method: PREINCUBATION) is “inactive; negative”. The mutagenic call under setting [12] was “inactive; negative”; the mutagenic call (Test System: AMES SALMONELLA TYPHIMURIUM, Strain/Indicator: TA1537, Metabolic Activation: RAT, LIVER, S-9, Method: PREINCUBATION) is “inactive; negative”; the mutagenic call under setting [13] is “inactive; negative”; the mutagenic call (Test System: AMES SALMONELLA TYPHIMURIUM, Strain/Indicator: TA1538, Metabolic Activation: RAT, LIVER, S-9, Method: PREINCUBATION) was “inactive; negative”; the mutagenic call (Test System: E. COLI, Strain/Indicator: WP2, Metabolic Activation: NONE, Method: PREINCUBATION) was “inactive; negative”; the mutagenic call (Test System: E. COLI, Strain/Indicator: WP2 UVRA, Metabolic Activation: NONE, Method: PREINCUBATION) is “inactive; negative”. The mutagenic call (Test System: E. COLI, Strain/Indicator: WP2 UVRA, Metabolic Activation: RAT, LIVER, S-9, Method: PREINCUBATION) is “inactive; negative”.

Consider `ClC1=C(Cl)C2(Cl)C3C(Cl)C(Cl)CC3C1(Cl)C2(Cl)Cl` (stereo unspecified), for which the mutagenic call by setting is: (Test System: AMES SALMONELLA TYPHIMURIUM, Strain/Indicator: TA98, Metabolic Activation: HAMSTER, LIVER, S-9, AROCLOR 1254 (5, 10 OR 30%), Method: PREINCUBATION) “inactive; negative”; under setting [2], “inactive; negative”; (Test System: AMES SALMONELLA TYPHIMURIUM, Strain/Indicator: TA98, Metabolic Activation: RAT, LIVER, S-9, AROCLOR 1254 (5, 10 OR 30%), Method: PREINCUBATION) “inactive; negative”; under setting [5], “active; positive”; (Test System: AMES SALMONELLA TYPHIMURIUM, Strain/Indicator: TA100, Metabolic Activation: NONE, Method: DESICCATOR) “active; positive”; under setting [6], “inactive; negative”. For the same compound, the mutagenic call reads like this: under setting [8], “active; positive”; (Test System: CHINESE HAMSTER V-79, Strain/Indicator: V-79/OUABAIN, Metabolic Activation: NONE, Method: STANDARD PLATE) “active; positive”.
